Here are results for 1 molecule from patent publication US9834754B2, “Populations of hematopoietic progenitors and methods of enriching stem cells therefor” (University Health Network, priority 2011, dated 2017).

In test [1] the test system is H1 hESCs differentiated as embryoid bodies (EBs). The test is described as follows: Flow cytometric analysis of surface markers on hESC-derived EBs. The format is cell-based, human. The procedure: The hESC line H1 (Thomson et al., 1998) and the reprogrammed human iPS cell line (MSC-iPS1; (Park et al., 2008)) were used in this study. They were maintained on irradiated mouse embryonic fibroblasts in hESC media as described previously (Kennedy et al., 2007). Prior to differentiation, the cells were feeder-depleted by culturing on matrigel (BD Biosciences, Bedford, Mass.) in hESC media for 24 to 48 hours. To generate EBs, hPSCs were treated with collagenase B (1 mg/ml; Roche, Indianapolis, Ind.) for 20 minutes followed by a short trypsin-EDTA (0.05%) step. Cells were gently scraped with a cell scraper to form small aggregates (10-20 cells). Aggregates were resuspended in StemPro-34 (Invitrogen), supplemented with penicillin/streptomycin (10 ng/mL), L-glutamine (2 mM), ascorbic acid (1 mM), monothioglycerol (MTG, 4×10^-4M; Sigma), and transferrin (150 μg/mL). BMP-4 (10 ng/mL), bFGF (5 ng/mL), Activin A, 6 μM SB-431542, VEGF (15 ng/mL), Dkk (150 ng/mL), IL-6 (10 ng/mL), IGF-1 (25 ng/mL), IL-11 (5 ng/mL), SCF (50 ng/mL), EPO (2 U/mL final), TPO (30 ng/mL), IL-3 (30 ng/mL) and Flt-3L (10 ng/mL) were added as indicated. Cultures were maintained in a 5% CO2/5% O2/90% N2 environment for the first 8 days and then transferred to a 5% CO2/air environment. All recombinant factors are human and were purchased from R&D Systems (Minneapolis, Minn.). The following antibodies were used for these studies: CD3-APC (clone UCHT1), CD4-APC-EFluor750 (clone RPA-T4), CD5-PE-Cy7 (clone L17F12), CD7-FITC (clone M-[…]), CD8-eFluor-650 NC (clone RPA-T8), CD31-FITC (clone WM59), CD33-FITC (clone HIM 3-4), CD34-APC (clone 8G12), CD34-PE-CY7 (clone 4H11), CD41-APC (clone HIP8), […]10), CD45-APC-eFluor750 (clone 2D1) or CD45-PacificBlue (clone H130), CD56-PE-Cy7 (clone B159), CD90-APC (clone 5E10), CD117-APC (clone 104D2), CD144-PE (clone 123413), KDR-PE (clone 89106), TCRγδ-FITC (clone 11F2), TCRαβ-PE (clone T10B9.1A-31). Stained cells were analyzed using an LSRII (BD Biosciences) flow cytometer at the indicated time points. Data analysis was performed using FlowJo software. For T lymphoid studies, analyses were carried out by gating on live cells and lack of 6-Diamidino-2-phenylindole (DAPI) uptake, followed by gating on cells expressing CD45. All antibodies were purchased from BD Biosciences (San Diego, Calif.) with the following exceptions: CD8 eFluor-650 NC and CD34-PE-CY7 were purchased from eBioscience (San Diego, Calif.) and KDR was purchased from R&D systems. Cells were sorted with […] (BD) cell sorter at the Sick Kids/UHN Flow Cytometry Facility.
(In general: Flow cytometry measures light scatter and fluorescence of single cells or particles in a stream.)

The test system of test [2] is other pathways or kinases including BMP4, ERK, JNK or p38 MAPK. The following applies: Inman, 2002; cited from earlier work.
The mark [3] stands for this setting: inhibition between days 2 and 4, FIG. 4C.

For the molecule `NC(=O)c1ccc(-c2nc(-c3ccc4c(c3)OCO4)c(-c3ccccn3)[nH]2)cc1` [SB-431542], the “CD43+ population at day 9 when SB addition delayed until day 3” value in test [1] (SB added at day 3 of differentiation, FIG. 9) is “development of some CD43^+ cells”. Besides, the “development of KDR+ and CD34+ populations” value in test [1] (SB added between days 2 and 4 of differentiation) is “developed normally”. Moreover, the “induction of KDR+CD34+ hematopoietic mesoderm population at day 5 of differentiation” value in test [1] (SB added within the first 24 hours of differentiation, FIG. 4A) is listed as “completely blocked”. Also, in test [1] (setting [3]), the “development of the CD43+ population in day 9 EBs” value is “completely blocked” and the “effect on CD34+ cells in day 9 EBs” value is given as “did not appear to impact”. Moreover, in test [1] (inhibitor added between days 1 and 2 of differentiation), the “development of KDR+ cells (mesoderm formation)” value is reported as “prevented the development of any KDR^+ cells”. In addition, the “inhibition of other pathways or kinases including BMP4, ERK, JNK or p38 MAPK” value in test [2] is listed as “no observed inhibition”.
